What was measured:
Format in all cases: physicochemical
[1] = Storage stability at different relative humidities and temperatures, 6 months (XRPD)
Procedure: (§1) X-ray diffraction was performed on X-Ray powder diffractometer: • Bruker D8 Advance; CuKα radiation (λ=1.5418 Å); Lynx eye detector; laboratory temperature 22-25° C.; PMMA specimen holder ring with silicon low background. Prior to analysis, the samples were gently ground by means of mortar and pestle in order to obtain a fine powder. The ground sample was adjusted into a cavity of the sample holder and the surface of the sample was smoothed by means of a cover glass. Measurement Parameters: • Scan range: 2-40 degrees 2-theta; • Scan mode: continuous; • Step size: 0.05 degrees; • Time per step: 0.5 s; • Sample spin: 30 rpm; • Sample holder: PMMA specimen holder ring with silicon low background.
Samples of Ensifentrine ethane-1,2-disulfonate form ES2 were subjected to conditions of different relative humidities at different temperatures. XRPD analysis was performed on the samples after 6 months.

[2] = Grinding experiments (strong grinding, solvent drop grinding; XRPD); conditions: for XRPD analysis results: 2 minutes
Procedure: as §1
Samples of Ensifentrine ethane-1,2-disulfonate form ES2 were subjected to strong grinding, and to solvent drop grinding in water and ethanol. Grinding was carried out on the samples alone, or in the presence of ethanol or water. In these experiments, about 20 mg of the sample is placed in a mortar and ground with a pestle for 2 minutes. The solvent, when used, as added to the crystalline material before grinding, in a volume of 10 microlitres. XRPD analysis performed on each of the samples after the grinding experiment, confirmed no change in the starting material (Table 3): […]

[3] = Thermal stability (heating, XRPD); conditions: heating up to 100° C. for 30 minutes
Procedure: as §1
XRPD analysis of the sample confirmed no change in the starting material (Table 4): […]

- XRPD analysis results ([1]; 25° C., 60% RH): No change
- XRPD analysis results ([1]; 40° C., 75% RH): No change
- XRPD analysis results ([2]; Solvent-drop grinding (ethanol), 10 microlitres): No change
- XRPD analysis results ([2]; Solvent-drop grinding (water), 10 microlitres): No change
- XRPD analysis results ([2]; Strong grinding, about 20 mg, mortar and pestle): No change
- XRPD analysis after the grinding experiment ([2]; each of the samples: alone, with ethanol, with water): no change
- XRPD analysis after heating [3]: no change
Substance: Ensifentrine ethane-1,2-disulfonate

Source: US12692265B2, “Solid state forms of Ensifentrine and process for preparation thereof” (ASSIA CHEMICAL INDUSTRIES LTD., priority 2021, dated 2026)
